Test results reported in patent US10508085B2, “Compounds and methods for IDO and TDO modulation, and indications therefor” (Plexxikon Inc., priority 2016, dated 2019).

What was measured:
[1] = target: T1, Human Indoleamine 2,3-dioxygenase (IDO) (Homo sapiens, UniProt P14902); test: Human IDO enzymatic assay (kynurenine level); format: biochemical; details: 6 nM IDO, 10 μM L-Trp; geometric mean; read-out: IDO1 GMean: IC50 (μM) (Biochemical Assay)
T1 construct: His tag (N); made in house; host or cells: E. coli
Description: (§1) Human Indoleamine 2,3-dioxygenase (IDO) and Tryptophan 2,3-dioxygenase (TDO) enzymatic assay
(§2) Human IDO or TDO with N-terminal His tag is purified in E. coli. The IDO enzymatic assay is performed using 6 nM IDO and 10 μM L-Trp in the presence of 10 mM ascorbic acid, 5 μM methylene blue, 100 nM catalase and 0.01% Tween 20 in 50 mM sodium phosphate buffer (pH 6.5). 19 μL of above reaction mixture is added to wells of 384 well reaction plate containing […] of various concentrations of test compound or DMSO vehicle and incubated for 20 minutes at room temperature. The TDO enzymatic reaction assay is performed using 1 nM TDO and 350 μM L-Trp in the presence of 10 mM ascorbic acid, 0.4 μM methylene blue, 100 nM catalase and 0.01% Tween 20 in 50 mM sodium phosphate buffer (pH 6.5). 19 μL of above reaction mixture is added to wells of 384 well reaction plate containing 1 μL of various concentrations of test compound or DMSO vehicle and incubated for 70 minutes at room temperature. 16 wells containing all the components of reaction mixture and 5% DMSO serve as high control. 16 well containing all the components except enzyme of reaction mixture and 5% DMSO serves as low control. Both IDO and TDO enzymatic reactions are stopped by addition of […] of 30% TCA and incubated 30 minutes at 50° C. to hydrolyze N-formylkynurenine produced by IDO or TDO to kynurenine. Upon measuring the kynurenine level, the percentage inhibition is calculated at individual concentrations relative to high and low controls. The data is analyzed by using nonlinear regression to generate IC50 values.

[2] = target: T2, Human Tryptophan 2,3-dioxygenase (TDO) (Homo sapiens, UniProt P48775); test: Human TDO enzymatic assay (kynurenine level); format: biochemical; details: 1 nM TDO, 350 μM L-Trp; geometric mean; read-out: TDO GMean: IC50 (μM) (Biochemical Assay)
T2 construct: His tag (N); made in house; host or cells: E. coli
Description: as §1, §2

T2 sequence (P48775 whole entry): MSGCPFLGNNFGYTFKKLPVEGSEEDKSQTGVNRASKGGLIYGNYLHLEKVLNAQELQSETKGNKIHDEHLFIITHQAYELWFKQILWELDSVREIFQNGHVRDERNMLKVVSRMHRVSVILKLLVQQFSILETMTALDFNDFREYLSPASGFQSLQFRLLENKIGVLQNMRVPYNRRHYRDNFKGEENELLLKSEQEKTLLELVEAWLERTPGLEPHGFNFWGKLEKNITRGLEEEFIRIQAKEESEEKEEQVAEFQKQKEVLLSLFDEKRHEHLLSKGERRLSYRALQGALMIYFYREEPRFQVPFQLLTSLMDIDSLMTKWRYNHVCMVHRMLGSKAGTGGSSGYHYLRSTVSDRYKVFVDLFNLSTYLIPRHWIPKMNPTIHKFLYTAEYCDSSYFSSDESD
T1 sequence (P14902 whole entry): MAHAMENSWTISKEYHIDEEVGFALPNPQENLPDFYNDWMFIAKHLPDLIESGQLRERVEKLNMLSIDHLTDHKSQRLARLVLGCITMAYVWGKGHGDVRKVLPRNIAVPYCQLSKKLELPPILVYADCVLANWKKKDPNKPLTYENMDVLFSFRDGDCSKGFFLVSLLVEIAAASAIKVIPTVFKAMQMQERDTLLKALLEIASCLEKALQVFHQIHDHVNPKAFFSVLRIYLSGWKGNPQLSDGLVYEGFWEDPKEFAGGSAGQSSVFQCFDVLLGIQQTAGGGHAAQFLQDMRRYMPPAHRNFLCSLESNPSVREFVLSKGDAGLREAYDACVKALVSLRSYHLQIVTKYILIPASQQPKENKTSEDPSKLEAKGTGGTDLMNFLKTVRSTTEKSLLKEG

Structure (SMILES)	IC50 [1]	IC50 [2]
N#CCC(=O)N1CCC(C(F)(F)[C@H](O)c2c3c(cc4cn[nH]c24)CC3)CC1 [Compound P-0613, (R)-3-(4-(2-(5,6-dihydro-1H-cyclobuta[f]indazol-7-yl)-1,1-difluoro-2-hydroxyethyl)piperidin-1-yl)-3-oxopropanenitrile]	0.0001 to 10 µM	0.0001 to 10 µM
COCC(=O)N1CCC(C(F)(F)[C@H](O)c2c3c(cc4cn[nH]c24)CC3)CC1 [Compound P-0614, (R)-1-(4-(2-(5,6-dihydro-1H-cyclobuta[f]indazol-7-yl)-1,1-difluoro-2-hydroxyethyl)piperidin-1-yl)-2-methoxyethan-1-one]	0.0001 to 10 µM	0.0001 to 10 µM
O=C(CO)N1CCC(C(F)(F)[C@H](O)c2c3c(cc4cn[nH]c24)CC3)CC1 [Compound P-0615, (R)-1-(4-(2-(5,6-dihydro-1H-cyclobuta[f]indazol-7-yl)-1,1-difluoro-2-hydroxyethyl)piperidin-1-yl)-2-hydroxyethan-1-one]	0.0001 to 10 µM	0.0001 to 10 µM
CC1(C)C(C(=O)N2CCC(C(F)(F)[C@H](O)c3c4c(cc5cn[nH]c35)CC4)CC2)C1(C)C [Compound P-0616, (R)-(4-(2-(5,6-dihydro-1H-cyclobuta[f]indazol-7-yl)-1,1-difluoro-2-hydroxyethyl)piperidin-1-yl)(2,2,3,3-tetramethylcyclopropyl) methanone]	0.0001 to 10 µM	10 to 100 µM
O=C(CC1CCOCC1)N1CCC(C(F)(F)[C@H](O)c2c3c(cc4cn[nH]c24)CC3)CC1 [Compound P-0617, (R)-1-(4-(2-(5,6-dihydro-1H-cyclobuta[f]indazol-7-yl)-1,1-difluoro-2-hydroxyethyl)piperidin-1-yl)-2-(tetrahydro-2H-pyran-4-yl)ethan-1-one]	0.0001 to 10 µM	0.0001 to 10 µM
O=C(C1CCOCC1)N1CCC(C(F)(F)[C@H](O)c2c3c(cc4cn[nH]c24)CC3)CC1 [Compound P-0618, (R)-(4-(2-(5,6-dihydro-1H-cyclobuta[f]indazol-7-yl)-1,1-difluoro-2-hydroxyethyl)piperidin-1-yl)(tetrahydro-2H-pyran-4-yl)methanone]	0.0001 to 10 µM	0.0001 to 10 µM
O=C(c1cccnc1)N1CCC(C(F)(F)[C@H](O)c2c3c(cc4cn[nH]c24)CC3)CC1 [Compound P-0619, (R)-(4-(2-(5,6-dihydro-1H-cyclobuta[f]indazol-7-yl)-1,1-difluoro-2-hydroxyethyl)piperidin-1-yl) (pyridin-3-yl)methanone]	0.0001 to 10 µM	0.0001 to 10 µM
O=C(c1ccc(C(F)(F)F)nc1)N1CCC(C(F)(F)[C@H](O)c2c3c(cc4cn[nH]c24)CC3)CC1 [Compound P-0620, (R)-(4-(2-(5,6-dihydro-1H-cyclobuta[f]indazol-7-yl)-1,1-difluoro-2-hydroxyethyl)piperidin-1-yl)(6-(trifluoromethyl)pyridin-3-yl)methanone]	0.0001 to 10 µM	0.0001 to 10 µM
O=C(c1ccc(Cl)cn1)N1CCC(C(F)(F)[C@H](O)c2c3c(cc4cn[nH]c24)CC3)CC1 [Compound P-0621, (R)-(5-chloropyridin-2-yl)(4-(2-(5,6-dihydro-1H-cyclobuta[f]indazol-7-yl)-1,1-difluoro-hydroxyethyl)piperidin-1-yl) methanone]	0.0001 to 10 µM	0.0001 to 10 µM
O=C(CN1CCOCC1)N1CCC(C(F)(F)[C@H](O)c2c3c(cc4cn[nH]c24)CC3)CC1 [Compound P-0622, (R)-1-(4-(2-(5,6-dihydro-1H-cyclobuta[f]indazol-7-yl)-1,1-difluoro-2-hydroxyethyl)piperidin-1-yl)-2-morpholinoethan-1-one]	0.0001 to 10 µM	0.0001 to 10 µM
O=C(CN1CCS(=O)(=O)CC1)N1CCC(C(F)(F)[C@H](O)c2c3c(cc4cn[nH]c24)CC3)CC1 [Compound P-0623, (R)-1-(4-(2-(5,6-dihydro-1H-cyclobuta[f]indazol-7-yl)-1,1-difluoro-2-hydroxyethyl)piperidin-1-yl)-2-(1,1-dioxidothiomorpholino) ethan-1-one]	0.0001 to 10 µM	0.0001 to 10 µM
O=C(CC1CCS(=O)(=O)CC1)N1CCC(C(F)(F)[C@H](O)c2c3c(cc4cn[nH]c24)CC3)CC1 [Compound P-0624, (R)-1-(4-(2-(5,6-dihydro-1H-cyclobuta[f]indazol-7-yl)-1,1-difluoro-2-hydroxyethyl)piperidin-1-yl)-2-(1,1-dioxidotetrahydro-2H-thiopyran-4-yl)ethan-1-one]	0.0001 to 10 µM	0.0001 to 10 µM

More lines, now with the values ahead:

IC50 [1]	IC50 [2]	Structure (SMILES)
0.0001 to 10 µM	0.0001 to 10 µM	O=C(Cc1ccc(F)c(Cl)c1)N1CCC(C(F)(F)[C@H](O)c2c3c(cc4cn[nH]c24)CC3)CC1 [Compound P-0625, (R)-2-(3-chloro-4-fluorophenyl)-1-(4-(2-(5,6-dihydro-1H-cyclobuta[f]indazol 7-yl)-1,1-difluoro-2-hydroxyethyl)piperidin-1-yl) ethan-1-one]
0.0001 to 10 µM	0.0001 to 10 µM	O=C(Cc1ccc(Cl)c(F)c1)N1CCC(C(F)(F)[C@H](O)c2c3c(cc4cn[nH]c24)CC3)CC1 [Compound P-0626, (R)-2-(4-chloro-3-fluorophenyl)-1-(4-(2-(5,6-dihydro-1H-cyclobuta[f]indazol-7-yl)-1,1-difluoro-2-hydroxyethyl)piperidin-1-yl) ethan-1-one]
0.0001 to 10 µM	0.0001 to 10 µM	CCNC(=O)N1CCC(C(F)(F)[C@H](O)c2c3c(cc4cn[nH]c24)CC3)CC1 [Compound P-0627, (R)-4-(2-(5,6-dihydro-1H-cyclobuta[f]indazol-7-yl)-1,1-difluoro-2-hydroxyethyl)-N-ethylpiperidine-1-carboxamide]
0.0001 to 10 µM	0.0001 to 10 µM	O=C(NC1CC1)N1CCC(C(F)(F)[C@H](O)c2c3c(cc4cn[nH]c24)CC3)CC1 [Compound P-0628, (R)-N-cyclopropyl-4-(2-(5,6-dihydro-1H-cyclobuta[f]indazol-7-yl)-1,1-difluoro-2-hydroxyethyl) piperidine-1-carboxamide]
0.0001 to 10 µM	0.0001 to 10 µM	O=C(NC1CCC1)N1CCC(C(F)(F)[C@H](O)c2c3c(cc4cn[nH]c24)CC3)CC1 [Compound P-0629, (R)-N-cyclobutyl-4-(2-(5,6-dihydro-1H-cyclobuta[f]indazol-7-yl)-1,1-difluoro-2-hydroxyethyl) piperidine-1-carboxamide]
0.0001 to 10 µM	0.0001 to 10 µM	COCCNC(=O)N1CCC(C(F)(F)[C@H](O)c2c3c(cc4cn[nH]c24)CC3)CC1 [Compound P-0630, (R)-4-(2-(5,6-dihydro-1H-cyclobuta[f]indazol-7-yl)-1,1-difluoro-2-hydroxyethyl)-N-(2-methoxyethyl) piperidine-1-carboxamide]
0.0001 to 10 µM	0.0001 to 10 µM	O=C(NCC1CC1)N1CCC(C(F)(F)[C@H](O)c2c3c(cc4cn[nH]c24)CC3)CC1 [Compound P-0631, (R)-N-(cyclopropylmethyl)-4-(2-(5,6-dihydro-1H-cyclobuta[f]indazol-7-yl)-1,1-difluoro-2-hydroxyethyl) piperidine-1-carboxamide]
0.0001 to 10 µM	0.0001 to 10 µM	O=C(Nc1cccnc1)N1CCC(C(F)(F)[C@H](O)c2c3c(cc4cn[nH]c24)CC3)CC1 [Compound P-0636, (R)-4-(2-(5,6-dihydro-1H-cyclobuta[f]indazol-7-yl)-1,1-difluoro-2-hydroxyethyl)-N-(pyridin-3-yl)piperidine-1-carboxamide]
0.0001 to 10 µM	0.0001 to 10 µM	O=C(Nc1ccc(F)cc1)N1CCC(C(F)(F)[C@H](O)c2c3c(cc4cn[nH]c24)CC3)CC1 [Compound P-0637, (R)-4-(2-(5,6-dihydro-1H-cyclobuta[f]indazol-7-yl)-1,1-difluoro-2-hydroxyethyl)-N-(4-fluorophenyl) piperidine-1-carboxamide]
0.0001 to 10 µM	0.0001 to 10 µM	N#Cc1ccc(NC(=O)N2CCC(C(F)(F)[C@H](O)c3c4c(cc5cn[nH]c35)CC4)CC2)cc1 [Compound P-0638, (R)-N-(4-cyanophenyl)-4-(2-(5,6-dihydro-1H-cyclobuta[f]indazol-7-yl)-1,1-difluoro-2-hydroxyethyl) piperidine-1-carboxamide]
0.0001 to 10 µM	0.0001 to 10 µM	CC1(C(O)c2cc(Cl)c(F)c3cn[nH]c23)CC(F)(F)C1 (stereo not drawn) [Compound P-0650, (5-chloro-4-fluoro-1H-indazol-7-yl)(3,3-difluoro-1-methylcyclobutyl)methanol]
0.0001 to 10 µM	0.0001 to 10 µM	O=C(Cc1ccnc(Cl)c1)N1CCC(C(F)(F)C(O)c2cc(Cl)cc3[nH]ncc23)CC1 (stereo not drawn) [Compound P-0657, 1-(4-(2-(6-chloro-1H-indazol-4-yl)-1,1-difluoro-2-hydroxyethyl)piperidin-1-yl)-2-(2-chloropyridin-4-yl)ethan-1-one]
